Measured values as given in the METLIN SMRT retention time set (Domingo-Almenara et al. 2019).

Experiment: gradient 5% acetonitrile 3 min, to 50% in 2 min, to 85% in 15 min, held 3 min, 100 µL/min
Details: column: Zorbax Extend-C18 2.1 x 50 mm; eluents: water / acetonitrile, 0.1% formic acid
Method in brief: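 Retention times of pure standards were taken from adduct peaks that were selected by computer and manually inspected. Over 3 months, mixtures of ~100 molecules were run by HPLC–quadrupole time-of-flight mass spectrometry in positive and negative ionization mode. The Zorbax Extend-C18 column (2.1 × 50 mm, 1.8 μm) ran at 100 μL/min in water and acetonitrile, each containing 0.1% formic acid, with 40 μL dead volume and 900 μL dwell volume.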

| SMILES | RP-LC retention time [s] |
| --- | --- |
| CC(C)CC(=O)N(C)CCc1noc(-c2ccc(C(=O)N3CCOCC3)cc2)n1 | 695 |
| CCOCCCNC(=O)c1c(N2CCCC2=O)c2cc(C)ccc2n1C | 782 |
| Cn1cnc2ccc(-c3noc(Cc4ccccc4Cl)n3)cc21 | 738 |
| COc1ccc(NS(=O)(=O)/C=C/c2ccccc2)cc1N1CCCC1=O | 721 |
| Cc1nc(NS(=O)(=O)CCOc2ccc(F)cc2)sc1C | 710 |
| Cc1cccn2c(Nc3ccc4c(c3)OCCO4)c(-c3ccc(O)cc3)nc12 | 642 |
| COc1cccc(S(=O)(=O)N2CCOCCNC(=O)[C@@H]3CCC[C@@H]32)c1 | 740 |
| O=C(Cn1cccc(-c2nc(-c3ccc(Br)cc3)no2)c1=O)Nc1ccc(F)cc1F | 990 |
| Cc1c(C#N)c2ccccc2n1CC(=O)NCc1ccc2c(c1)OCCCO2 | 856 |
| CCN1CCCC1CNC(=O)c1nc(-c2oc3c(C)cccc3c2C)no1 (stereo unspecified) | 670 |
| COc1ccc(OC)c(S(=O)(=O)N2CCCC(C(=O)NCc3ccncc3)C2)c1 (stereo unspecified) | 604 |
| CCc1ccc(NC(=O)Cn2c(-c3cnccn3)nc(C)c(C)c2=O)cc1 | 792 |
| O=C1c2ccccc2C(=O)c2oc(-c3ccccc3)nc21 | 1150 |
| O=C(NCCc1ccccn1)C1CCc2nc(N3CCOCC3)ncc2C1 (stereo unspecified) | 645 |
| CCOC(=O)C1C(=O)C=C(c2cccs2)CC1c1ccc(F)cc1 (stereo unspecified) | 1110 |
| CC1CCN(c2cc(-n3cnc(C(=O)N4CCSCC4)c3)ncn2)CC1 | 719 |
| CC(C)n1cnc2cc(CNC(=O)C3(c4ccccc4)CC3)ccc21 | 648 |
| O=C(CN1C(=O)c2ccccc2C1=O)OCc1nc2ccccc2s1 | 840 |
| CCc1cc(C(=O)NCc2ccc(C)o2)nc2cc(-c3ccccn3)nn12 | 778 |
| Cc1cccc(Oc2nccn3c(=O)n(CC(=O)NCCC4=CCCCC4)nc23)c1C | 1000 |
| Cc1cnn(CCC(=O)N2CCCCCCNC(=O)[C@@H]3CCCC[C@@H]32)c1 | 728 |
| Cc1ccc(Cl)cc1NC(=O)Cn1c(C)nc2c(sc3nc(-c4ccccc4)ccc32)c1=O | 1140 |
| Cc1ccc(S(=O)(=O)N2CCC(CCC(=O)NC3CCS(=O)(=O)C3)CC2)cc1 (stereo unspecified) | 740 |

| SMILES | RP-LC retention time [s] |
| --- | --- |
| COc1ccc(-c2nc(C)cc(C)c2CNC(=O)C2CCC2)cc1 | 584 |
| Cc1oc(C(C)C)nc1C(=O)Nc1ccc(Cl)cc1 | 1150 |
| Cc1cc2c(cc1S(=O)(=O)N1CCC(C(=O)NCc3ccccc3Cl)CC1)OCC(=O)N2 | 789 |
| COc1cc(C(=O)NC2CCN(c3cc(-c4cccs4)[nH]n3)C2)cc(OC)c1OC (stereo unspecified) | 698 |
| Cc1ccc(NC(=O)Cn2cnc3nc(N4CCC(C(=O)NC5CC5)CC4)sc3c2=O)cc1C | 693 |
| CCN1C(=O)CCc2cc(NC(=O)c3n[nH]c4ccccc34)ccc21 | 761 |
| Cc1nsc2ncc(C(=O)N3CCOCC3)c(N3CCC(C(=O)Nc4ccc(Cl)cc4)CC3)c12 | 846 |
| Cc1nc(-c2cn(C)c3ncccc23)sc1C(=O)Nc1ccc(Cl)cc1F | 975 |
| COc1ccccc1-n1nnc(C(=O)OCc2nc(-c3cccc(Cl)c3)oc2C)c1C | 1160 |
| CCN1CCCCc2cc(C(=O)NC(C)COC)sc21 (stereo unspecified) | 905 |
| COCCN1C(=O)[C@H]2CN(Cc3cc(Cl)ccc3F)C[C@H]2C1=O | 696 |
| CNC(=O)C1CCCN(c2nc3ncn(CC(=O)Nc4ccccc4C)c(=O)c3s2)C1 (stereo unspecified) | 628 |
| CN(C)c1nc2cc(C(=O)N3CCC4(CC3)OCCO4)sc2n1-c1ccccc1 | 647 |
| O=S(=O)(c1ccc2c(c1)OCCO2)N1CCC(Cc2nc(-c3cccnc3)n[nH]2)C1 (stereo unspecified) | 633 |
| c1cn(Cc2nc(-c3ccc4c(c3)OCO4)no2)cn1 | 605 |
| COc1ccc(-c2cc3c(=O)n(CC(=O)Nc4ccc(C)c(F)c4)ccn3n2)cc1OC | 780 |
| C1CCc2nc3c(nc2C1)CCCC3 | 722 |
| CN1C(=O)CSc2cnn(CC(=O)NC3CCCC3)c(=O)c21 | 637 |
| O=C(C(=O)N1CCc2ccccc2C1)c1c[nH]c2ccccc12 | 836 |
| CN1C(=O)c2cc(C(=O)NCc3ccc(F)cc3)nn2CC1(C)C(=O)NC1CCCCC1 (stereo unspecified) | 791 |
| O=C(NCCc1cccs1)c1nc(Nc2ccc(F)cc2)c2ccccc2n1 | 825 |
| Cc1noc(C)c1C1CCCN1C(=O)c1ccnn1C (stereo unspecified) | 638 |
| Cc1cc2n(n1)CCC(=O)N2CCCC(=O)NCc1ccco1 | 619 |

| SMILES | RP-LC retention time [s] |
| --- | --- |
| CCCCNc1cc(C)nc2nc(-c3ccc(C(C)(C)C)cc3)nn12 | 1100 |
| COc1cccc(CN2CCc3nn(C)c(=O)n3CC2)n1 | 544 |
| CO[C@H]1C(=O)N(C2CCN(S(=O)(=O)c3cccnc3)CC2)[C@H]1c1ccncc1 | 579 |
| COc1ccc(-c2ccc(=O)n(Cc3nc(-c4ccccc4)no3)n2)cc1OC | 900 |
| OCCNCc1ccc(-c2ccccc2F)o1 | 596 |
| CC(C)OCCCNC(=O)c1cc2c(n(-c3ccc(F)cc3)c1=O)CCCC2=O | 794 |
| Cc1ccnc(OCC(=O)NC(C)C)n1 | 586 |
| Cc1ccc2[nH]cc(CCN3CC(C(=O)Nc4ccccc4)CC3=O)c2c1 (stereo unspecified) | 801 |
| O=C(CN1C(=O)NC2(CCCCC2)C1=O)Nc1ccc2c(c1)OCO2 | 709 |
| CCCS(=O)(=O)N1CC(n2cc(C(=O)NCC3CC3)nn2)C1 | 722 |
| CCc1cc(=O)n(CC(=O)Nc2ccc(F)cc2C)c(N)n1 | 599 |
| Cc1ccc(C(=O)N2CCCCC2c2nncn2CC2CC2)s1 (stereo unspecified) | 740 |
| C=CCn1c(=O)c2c(nc3n2CCN3c2ccc(OC)cc2)n(C)c1=O | 786 |
| COc1cccc(C(=O)N2CCC3(CC2)NC(=O)c2ccc(Cl)cc2N3)c1 | 746 |
| COC(=O)c1cc2c(=O)n(-c3ccc(OC)cc3OC)ccc2nc1C | 803 |
| O=C(c1ccc2c(c1)CCCN2S(=O)(=O)c1ccccc1)N1CCCC1 | 852 |
| COC(=O)c1cc(S(=O)(=O)N2CCCC2C(=O)Nc2cccc(C(F)(F)F)c2)cn1C (stereo unspecified) | 971 |
| COc1ccc(Cc2nc3nccc(-c4cccc(OC)c4)n3n2)cc1 | 887 |
| COc1cc2nccc(Oc3ccc(NC(=O)NC4CC4)c(Cl)c3)c2cc1C(N)=O | 633 |
| O=C(Cn1ccc2ccc(N3CCOCC3)nc21)NCc1ccc(F)cc1F | 870 |
| O=C(NCc1ccccc1Cl)C1CCN(c2cnc(N3CCCC3)nc2)CC1 | 684 |
| CCOC(=O)c1cc(C)nc2c1c(=O)n(Cc1ccccc1C)c(=O)n2C | 872 |
| CCCN1C(=O)COc2cc(-c3noc(C(=O)N4CCN(c5ccc(Cl)cc5)CC4)n3)ccc21 | 1190 |

| SMILES | RP-LC retention time [s] |
| --- | --- |
| O=C(C1COc2ccccc2O1)N1CCCn2nc(-c3cccs3)cc2C1 (stereo unspecified) | 934 |
| CC(C)(C)c1cc(C(=O)Nc2cc(F)ccc2F)nc2ccnn12 | 1450 |
| COc1ccc(CCS(=O)(=O)NCC(c2cccn2C)N2CCOCC2)cc1 (stereo unspecified) | 594 |
| CCn1nc(-c2nc(C(C)(C)C)no2)ccc1=O | 883 |
| CCOc1cc(=O)n2c(c1C(=O)NC(C)C)CCCCC2 | 623 |
| Cc1nc(-c2ccccc2)cc2nn(CC(=O)Nc3ccccc3Cl)c(=O)n12 | 966 |
| O=c1c2ccccc2c(-c2nc(-c3ccncc3)no2)cn1-c1ccccc1 | 1050 |
| COc1ccc(NC(=O)Cc2csc3nc(-c4cccc(Cl)c4)cn23)cc1 | 889 |
| O=C(NC1CCCC1)C1CCN(C(=O)N2CCOc3ccc(Cl)cc32)CC1 | 841 |
| Cc1nc(C)c(C(=O)N2CCC(N3C(=O)C4(CCCC4)C3c3scnc3C)CC2)s1 (stereo unspecified) | 684 |
| CC(C)N1CC(CNC(=O)c2ccco2)C2(CCCCC2)C1 (stereo unspecified) | 593 |
| CCc1ccc(S(=O)(=O)N2CCc3nc(-c4ccccc4)ncc3C2)cc1 | 1160 |
| Cc1cc(N2CCN(C)CC2)nc2ccc(NC(=S)N(C)C3CCCCC3)cc12 | 583 |
| CN1C(=O)C(=C2CCCC2)c2cc(S(=O)(=O)N3CCN(c4ccccn4)CC3)ccc21 | 710 |
| CCC(C)NC(=O)Cn1c(=O)c(=O)n(CC)c2ncccc21 (stereo unspecified) | 618 |
| COCc1cc(=O)n(CC(=O)NCc2ccccc2)c(N)n1 | 595 |
| CC(C)S(=O)(=O)c1ccc(C(=O)Nc2onc3c2CCCC3)cc1 | 732 |
| CC(C)n1cnc(S(=O)(=O)N2CCC(C(=O)N3CCN(c4ccccc4F)CC3)CC2)c1 | 807 |
| CCOC(=O)C1CCN([C@H]2CS(=O)(=O)C[C@@H]2S(=O)(=O)c2ccc(C)cc2)CC1 | 875 |
| Cc1ccsc1C(=O)N1CCN(c2ccc(=O)n(-c3ccc(Cl)cc3)n2)CC1 | 878 |
| CC(C)c1ccc(CNC(=O)c2ccc3c(c2)N(C)C2CCCCN2C3=O)cc1 (stereo unspecified) | 976 |
| Cc1cc2nn(CC(=O)Nc3ccccc3F)c(=O)n2c(Nc2ccccc2)n1 | 985 |
